Laboratory results as given in the NIST ThermoML archive (doi:10.1021/je900596d).

Details: Vibrating tube method

FC(F)=C(F)C(F)(F)F [hexafluoropropene]
Details | mass density [kg/m3]
358 K, 4209.5 kPa, Liquid | 959.82
358 K, 4244 kPa, Liquid | 962.07
358 K, 4311.4 kPa, Liquid | 966.64
358 K, 4345.1 kPa, Liquid | 968.66
358 K, 4377.8 kPa, Liquid | 970.84
358 K, 4412.5 kPa, Liquid | 972.94
358 K, 4446.5 kPa, Liquid | 974.92
358 K, 4462.6 kPa, Liquid | 975.95
358 K, 4478.8 kPa, Liquid | 976.81
358 K, 4496.2 kPa, Liquid | 977.89
358 K, 4532.3 kPa, Liquid | 980.04
358 K, 4565.8 kPa, Liquid | 981.81
358 K, 4599.8 kPa, Liquid | 983.7
358 K, 4632.6 kPa, Liquid | 985.44
358 K, 4668.1 kPa, Liquid | 987.45
358 K, 4740 kPa, Liquid | 991.23
358 K, 4775.8 kPa, Liquid | 993.1
358 K, 4809.3 kPa, Liquid | 994.65
358 K, 4843.6 kPa, Liquid | 996.44
358 K, 4876.3 kPa, Liquid | 997.93
358 K, 4910.7 kPa, Liquid | 999.61
358 K, 4945.1 kPa, Liquid | 1001.33
358 K, 4979.1 kPa, Liquid | 1002.85
358 K, 5028.3 kPa, Liquid | 1005.04
358 K, 5084.7 kPa, Liquid | 1007.62
358 K, 5195.4 kPa, Liquid | 1012.4
358 K, 5249.7 kPa, Liquid | 1014.83
358 K, 5306.8 kPa, Liquid | 1017.1
358 K, 5363.6 kPa, Liquid | 1019.45
358 K, 5416.2 kPa, Liquid | 1021.54
358 K, 5474.6 kPa, Liquid | 1023.85
358 K, 5533.9 kPa, Liquid | 1026.1
358 K, 5592 kPa, Liquid | 1028.23
358 K, 5702.1 kPa, Liquid | 1032.29
358 K, 5755.2 kPa, Liquid | 1034.16
358 K, 5815.3 kPa, Liquid | 1036.29
358 K, 5871.8 kPa, Liquid | 1038.22
358 K, 5932.6 kPa, Liquid | 1040.24
358 K, 5991.6 kPa, Liquid | 1042.28
358 K, 6074.8 kPa, Liquid | 1044.98
358 K, 6112.3 kPa, Liquid | 1046.22
358 K, 6149.2 kPa, Liquid | 1047.34
358 K, 6186.4 kPa, Liquid | 1048.47
358 K, 6224.4 kPa, Liquid | 1049.67
358 K, 6266.3 kPa, Liquid | 1050.92
358 K, 6304.3 kPa, Liquid | 1052.13
358 K, 6342.4 kPa, Liquid | 1053.2
358 K, 6379.7 kPa, Liquid | 1054.31
358 K, 6416.4 kPa, Liquid | 1055.29
358 K, 6452.8 kPa, Liquid | 1056.39
358 K, 6490 kPa, Liquid | 1057.54
358 K, 6563.2 kPa, Liquid | 1059.62
358 K, 6600.1 kPa, Liquid | 1060.63
358 K, 6637.3 kPa, Liquid | 1061.72
358 K, 6674.3 kPa, Liquid | 1062.71
358 K, 6711.6 kPa, Liquid | 1063.79
358 K, 6747.9 kPa, Liquid | 1064.77
358 K, 6784.3 kPa, Liquid | 1065.78
358 K, 6821 kPa, Liquid | 1066.78
358 K, 6857.4 kPa, Liquid | 1067.85
358 K, 6894.7 kPa, Liquid | 1068.84
358 K, 6931.9 kPa, Liquid | 1069.87
358 K, 6970.4 kPa, Liquid | 1070.83
358 K, 7006.9 kPa, Liquid | 1071.75
358 K, 7152.9 kPa, Liquid | 1075.52
358 K, 7190.1 kPa, Liquid | 1076.36
358 K, 7228 kPa, Liquid | 1077.43
358 K, 7266.4 kPa, Liquid | 1078.28
358 K, 7303.8 kPa, Liquid | 1079.27
358 K, 7341.7 kPa, Liquid | 1080.24
358 K, 7379.5 kPa, Liquid | 1081.09
358 K, 7418.9 kPa, Liquid | 1082.02
358 K, 7494.3 kPa, Liquid | 1083.92
358 K, 7532.3 kPa, Liquid | 1084.8
358 K, 7568.4 kPa, Liquid | 1085.67
358 K, 7605.7 kPa, Liquid | 1086.46
358 K, 7643.1 kPa, Liquid | 1087.34
358 K, 7680.1 kPa, Liquid | 1088.21
358 K, 7718 kPa, Liquid | 1089.17
358 K, 7755.4 kPa, Liquid | 1089.97
358 K, 7792.1 kPa, Liquid | 1090.77
358 K, 7828.3 kPa, Liquid | 1091.56
358 K, 7903.4 kPa, Liquid | 1093.29
358 K, 7941.2 kPa, Liquid | 1094.08
358 K, 7980.6 kPa, Liquid | 1094.93
358 K, 8017.9 kPa, Liquid | 1095.72
358 K, 8056.1 kPa, Liquid | 1096.58
358 K, 8093.2 kPa, Liquid | 1097.39
358 K, 8130.7 kPa, Liquid | 1098.19
358 K, 8167.5 kPa, Liquid | 1098.98
358 K, 8204.2 kPa, Liquid | 1099.77
358 K, 8277.6 kPa, Liquid | 1101.37
358 K, 8354.7 kPa, Liquid | 1102.88
358 K, 8391 kPa, Liquid | 1103.6
358 K, 8427.7 kPa, Liquid | 1104.39
358 K, 8465.5 kPa, Liquid | 1105.17
358 K, 8503.3 kPa, Liquid | 1105.96
358 K, 8541.1 kPa, Liquid | 1106.74
358 K, 8614.7 kPa, Liquid | 1108.07
358 K, 8651.4 kPa, Liquid | 1108.96
358 K, 8689.1 kPa, Liquid | 1109.62
358 K, 8725.5 kPa, Liquid | 1110.44
358 K, 8762.8 kPa, Liquid | 1111.12
358 K, 8836.9 kPa, Liquid | 1112.57
358 K, 8873.4 kPa, Liquid | 1113.15
358 K, 8910.1 kPa, Liquid | 1113.92
358 K, 8946.4 kPa, Liquid | 1114.65
358 K, 8982.6 kPa, Liquid | 1115.32
358 K, 9019.5 kPa, Liquid | 1115.96
358 K, 9058.4 kPa, Liquid | 1116.68
358 K, 9094.5 kPa, Liquid | 1117.44
358 K, 9170.1 kPa, Liquid | 1118.78
358 K, 9207.6 kPa, Liquid | 1119.39
358 K, 9244 kPa, Liquid | 1120.02
358 K, 9318.1 kPa, Liquid | 1121.42
358 K, 9355.8 kPa, Liquid | 1122.09
358 K, 9393.2 kPa, Liquid | 1122.82
358 K, 9429.9 kPa, Liquid | 1123.38
358 K, 9506 kPa, Liquid | 1124.84
358 K, 9543.2 kPa, Liquid | 1125.38
358 K, 9579.6 kPa, Liquid | 1126.21
358 K, 9653.1 kPa, Liquid | 1127.35
358 K, 9689.3 kPa, Liquid | 1128.07
358 K, 9728 kPa, Liquid | 1128.56
358 K, 9764.4 kPa, Liquid | 1129.27
358 K, 9801.8 kPa, Liquid | 1129.98
358 K, 9839.1 kPa, Liquid | 1130.57
358 K, 9875.2 kPa, Liquid | 1131.06
358 K, 9913 kPa, Liquid | 1131.87
358 K, 9951.5 kPa, Liquid | 1132.43
358 K, 9988 kPa, Liquid | 1133.16
358.16 K, 4.9 kPa, Fluid (supercritical or subcritical phases) | 0.14
358.16 K, 5.8 kPa, Fluid (supercritical or subcritical phases) | 0.15
358.16 K, 6.2 kPa, Fluid (supercritical or subcritical phases) | 0.17
